Test [1] in a line: IGROV1 ovarian cancer cell cytotoxicity, dose response, PAX8 inhibitor project, plate reader, dry powder samples (AID 743043). It counts as functional, cell-based. Particulars: IGROV-1.
Test [2] is described as follows: NIH:OVCAR-3 ovarian cancer cell cytotoxicity, dose response, PAX8 inhibitor project, plate reader, dry powder samples (AID 743044). It counts as functional, cell-based.
The nature of test [3]: IOSE-T80 ovarian epithelial cell cytotoxicity, dose response, cytotoxicity control for PAX8 inhibitor project, plate reader, dry powder samples (AID 743045). It counts as functional, cell-based.
A short description of test [4]: cytotoxicity in OVCAR8 ovarian cancer cells, dose response, PAX8 project, cell-based, plate reader, dry powder samples (AID 743197). Particulars: OVCAR-8. It counts as functional.
A short description of test [5]: A2780 ovarian cancer cell cytotoxicity, dose response, cytotoxicity control, plate reader, dry powder samples (AID 743046). It counts as functional, cell-based.
Test [6] deals with Paired box protein Pax-8 (Homo sapiens, UniProt Q06710). In words: inhibitors of PAX8-driven TPO luciferase reporter, dose response, RMG-I cells, cherry-pick (AID 687027).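 Further: luciferase reporter driven by Pax8 target thyroperoxidase promoter measured by SteadyGlo luminescence.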 It counts as functional, cell-based. A general note: Reporter assays use an easily measured gene product as a stand-in for the process of interest.
A short description of test [7]: HepG2 cell cytotoxicity, dose response, cytotoxicity control, cherry-picked samples (AID 1159577). It counts as functional, cell-based.
The nature of test [8]: P. falciparum Dd2 growth inhibitors, dose response, SYBR Green, cherry-picked samples (AID 1159567). It counts as functional, cell-based.
Test [9] can be described thus: HEK293T cytotoxicity, dose response, cytotoxicity control for miR-122 modulator project, cell-based, inhibitor set, cherry-pick, set 2 (AID 720697). It counts as functional.
Test [10] is described as follows: HEK293T cytotoxicity, dose response, cytotoxicity control for miR-122 modulator project, cell-based, activator set, cherry-pick (AID 720690).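 Further: HEK293T human cells scored for general mammalian cytotoxicity.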 It counts as functional.
A short description of test [11]: miR-122 activators in hepatoma reporter cells, dose response, cell-based, Huh7 psiCHECK-miR122, Renilla luciferase, cherry-picked (AID 651956).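 Further: huh7 hepatoma cells stably carrying a psiCHECK-2 miR-122 sensor plasmid; renilla luciferase signal reporting endogenous miR-122 activity after 48 h compound exposure.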 It counts as functional.
Test [12] can be described thus: P. falciparum Dd2 growth inhibitors, dose response, SYBR Green, dry powder samples, set 9 (AID 1159568). It counts as functional, cell-based.
A short description of test [13]: HepG2 cell cytotoxicity, dose response, cytotoxicity control, plate reader, cherry-pick, antagonist series (AID 743416). It counts as functional, cell-based.
The target in test [14] is COUP transcription factor 2 (Homo sapiens, UniProt P24468). In words: Luminescence-based cell-based high throughput dose response assay to identify inhibitors of COUP-TFII (NR2F2). It counts as functional.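 Further: HEK293 cells transiently cotransfected with COUP-TFII expression vector and reporter; luciferase reporter luminescence driven by COUP-TFII from the pX2-168 reporter plasmid.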
Test [15] is described as follows: HEK293 cell cytotoxicity, dose response, cytotoxicity control, plate reader, cherry-picked samples (AID 743446). It counts as functional, cell-based.
Test [16] can be described thus: control 3'UTR Renilla luciferase suppression, dose response, counter-screen for Shn3 inhibitor project, cell-based, Clone20-Shn3RL, cherry-picked (AID 624133). It counts as functional.
Test [17] can be described thus: LGR2 antagonists, dose response, cell-based, HEK293, CRE-luciferase reporter, cherry pick, set 2 (AID 743343).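 Further: transfected cells were stimulated with diluted bursicon conditioned medium after compound addition.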 It counts as functional.
A short description of test [18]: Shn3 3'UTR reporter inhibitors, dose response, cell-based, Clone20 osteoblasts, firefly luciferase, cherry-picked (AID 624132).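 Further: firefly luciferase luminescence from reporter carrying the Shn3 3'UTR in osteoblasts.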 It counts as functional.
The nature of test [19]: MC4R antagonists, dose response, counter-screen for LGR2 antagonist project, cell-based, plate reader, cherry pick (AID 743444).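 Further: transfected HEK 293 cells stimulated with alpha-MSH peptide; potency of inhibitors of the alpha-MSH evoked signal.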 It counts as functional. On the technique in general: Counterscreens check selectivity or assay interference.
Test [20] in a line: A549 cell cytotoxicity, dose response, cytotoxicity control, plate reader, cherry-pick, antagonist series (AID 743412). It counts as functional, cell-based.
For test [21], the target named is 1-phosphatidylinositol 4,5-bisphosphate phosphodiesterase gamma-1 (Homo sapiens, UniProt P19174). In words: Counterscreen for inhibitors of phospholipase C isozymes (PLC-B3): Fluorescence-based biochemical high throughput dose response assay to identify inhibitors of phospholipase C isozymes (PLC-gamma1).
In test [22] the target is 1-phosphatidylinositol 4,5-bisphosphate phosphodiesterase beta-3 (Homo sapiens, UniProt Q01970). In words: Fluorescence-based biochemical high throughput dose response assay to identify inhibitors of phospholipase C isozymes (PLC-B3).
Test [23] is described as follows: cytotoxicity toward Colo320 cells – cell-based, CellTiter-Glo luminescence, IC50, dose response (AID 1117334). It counts as functional. Particulars: COLO 320. On the technique in general: ATP-based viability assays read luminescence as a measure of living cells.
Test [24] is described as follows: RKO cell viability reduction, dose response, CellTiter-Glo luminescence (AID 1117322). It counts as functional.
The nature of test [25]: Concentration-dependent survival of SW480 colon cancer line, luminescence detection with CellTiter-Glo, half-maximal inhibitory concentration (AID 1117338). It counts as functional.
Test [26] in a line: cytotoxicity toward HCT116 cells – cell-based, CellTiter-Glo luminescence, IC50, dose response (AID 1117332). It counts as functional. Particulars: HCT-116.
Test [27] can be described thus: SNU-C1 cell viability reduction, dose response, CellTiter-Glo luminescence (AID 1117323). It counts as functional, cell-based.
Test [28] in a line: cytotoxicity toward HT-29 cells – cell-based, CellTiter-Glo luminescence, IC50, dose response (AID 1117330). It counts as functional.
A short description of test [29]: CellTiter-Glo luminescent dose response of DLD-1 viability loss (AID 1117352). It counts as functional.
Test [30] in a line: Luminescence-based cell-based high throughput dose response assay to identify activators of the DAF-12 from the parasite S. stercoralis (ssDAF-12). It counts as functional.
The target of test [31] is T1, Oxysterols receptor LXR-beta (Homo sapiens, UniProt P55055).
T1 sequence (P55055 whole entry): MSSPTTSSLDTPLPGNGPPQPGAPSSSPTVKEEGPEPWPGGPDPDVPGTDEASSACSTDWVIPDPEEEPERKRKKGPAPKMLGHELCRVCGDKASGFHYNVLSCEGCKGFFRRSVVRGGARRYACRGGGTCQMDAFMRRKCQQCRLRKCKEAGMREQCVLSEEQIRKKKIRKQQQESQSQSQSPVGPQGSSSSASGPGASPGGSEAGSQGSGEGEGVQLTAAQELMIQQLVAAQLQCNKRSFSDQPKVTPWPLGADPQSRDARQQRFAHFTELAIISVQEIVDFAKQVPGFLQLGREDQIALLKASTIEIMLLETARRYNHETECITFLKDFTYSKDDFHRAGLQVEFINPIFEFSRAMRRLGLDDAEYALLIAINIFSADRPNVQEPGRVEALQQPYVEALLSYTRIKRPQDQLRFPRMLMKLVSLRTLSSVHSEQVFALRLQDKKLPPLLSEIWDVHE
Briefly: LXR agonists, Gal4 luciferase reporter, dose response, counter-screen for ssDAF-12 agonist project, cell-based, luminescence, HEK293, S. stercoralis campaign (AID 720737). It counts as functional. Particulars: read-out: IC50 (the source's name).

Active and inactive are the calls of the source.

Broadly, the AC50 is the concentration giving half of the maximal activity seen. As a reminder, the IC50 is the point on the concentration scale where inhibition reaches its midpoint.

Sequence of Paired box protein Pax-8 (Q06710 whole entry): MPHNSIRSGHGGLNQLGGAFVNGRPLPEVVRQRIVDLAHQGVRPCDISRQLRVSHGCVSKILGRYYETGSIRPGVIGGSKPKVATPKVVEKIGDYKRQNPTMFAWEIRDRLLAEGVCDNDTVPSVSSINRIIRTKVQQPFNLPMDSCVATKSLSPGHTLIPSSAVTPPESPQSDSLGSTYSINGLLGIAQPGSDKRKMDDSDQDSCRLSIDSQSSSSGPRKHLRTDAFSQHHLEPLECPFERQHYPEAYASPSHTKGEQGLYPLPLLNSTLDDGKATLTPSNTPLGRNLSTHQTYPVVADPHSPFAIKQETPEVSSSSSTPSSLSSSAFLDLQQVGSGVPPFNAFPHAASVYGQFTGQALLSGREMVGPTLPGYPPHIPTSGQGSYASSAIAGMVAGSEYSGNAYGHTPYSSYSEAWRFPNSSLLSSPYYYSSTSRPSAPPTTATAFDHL
Sequence of COUP transcription factor 2 (P24468 whole entry): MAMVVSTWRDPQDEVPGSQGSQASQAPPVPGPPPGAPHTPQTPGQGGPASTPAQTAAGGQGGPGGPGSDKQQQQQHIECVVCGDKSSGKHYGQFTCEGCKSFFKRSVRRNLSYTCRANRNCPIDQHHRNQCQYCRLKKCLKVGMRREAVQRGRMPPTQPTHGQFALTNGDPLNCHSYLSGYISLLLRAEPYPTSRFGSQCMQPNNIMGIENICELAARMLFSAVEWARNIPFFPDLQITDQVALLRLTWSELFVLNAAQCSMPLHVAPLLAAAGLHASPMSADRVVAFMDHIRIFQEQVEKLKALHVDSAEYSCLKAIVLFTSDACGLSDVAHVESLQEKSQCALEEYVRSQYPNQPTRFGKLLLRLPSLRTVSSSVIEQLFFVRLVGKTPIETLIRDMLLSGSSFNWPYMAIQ
Sequence of 1-phosphatidylinositol 4,5-bisphosphate phosphodiesterase beta-3 (Q01970 whole entry): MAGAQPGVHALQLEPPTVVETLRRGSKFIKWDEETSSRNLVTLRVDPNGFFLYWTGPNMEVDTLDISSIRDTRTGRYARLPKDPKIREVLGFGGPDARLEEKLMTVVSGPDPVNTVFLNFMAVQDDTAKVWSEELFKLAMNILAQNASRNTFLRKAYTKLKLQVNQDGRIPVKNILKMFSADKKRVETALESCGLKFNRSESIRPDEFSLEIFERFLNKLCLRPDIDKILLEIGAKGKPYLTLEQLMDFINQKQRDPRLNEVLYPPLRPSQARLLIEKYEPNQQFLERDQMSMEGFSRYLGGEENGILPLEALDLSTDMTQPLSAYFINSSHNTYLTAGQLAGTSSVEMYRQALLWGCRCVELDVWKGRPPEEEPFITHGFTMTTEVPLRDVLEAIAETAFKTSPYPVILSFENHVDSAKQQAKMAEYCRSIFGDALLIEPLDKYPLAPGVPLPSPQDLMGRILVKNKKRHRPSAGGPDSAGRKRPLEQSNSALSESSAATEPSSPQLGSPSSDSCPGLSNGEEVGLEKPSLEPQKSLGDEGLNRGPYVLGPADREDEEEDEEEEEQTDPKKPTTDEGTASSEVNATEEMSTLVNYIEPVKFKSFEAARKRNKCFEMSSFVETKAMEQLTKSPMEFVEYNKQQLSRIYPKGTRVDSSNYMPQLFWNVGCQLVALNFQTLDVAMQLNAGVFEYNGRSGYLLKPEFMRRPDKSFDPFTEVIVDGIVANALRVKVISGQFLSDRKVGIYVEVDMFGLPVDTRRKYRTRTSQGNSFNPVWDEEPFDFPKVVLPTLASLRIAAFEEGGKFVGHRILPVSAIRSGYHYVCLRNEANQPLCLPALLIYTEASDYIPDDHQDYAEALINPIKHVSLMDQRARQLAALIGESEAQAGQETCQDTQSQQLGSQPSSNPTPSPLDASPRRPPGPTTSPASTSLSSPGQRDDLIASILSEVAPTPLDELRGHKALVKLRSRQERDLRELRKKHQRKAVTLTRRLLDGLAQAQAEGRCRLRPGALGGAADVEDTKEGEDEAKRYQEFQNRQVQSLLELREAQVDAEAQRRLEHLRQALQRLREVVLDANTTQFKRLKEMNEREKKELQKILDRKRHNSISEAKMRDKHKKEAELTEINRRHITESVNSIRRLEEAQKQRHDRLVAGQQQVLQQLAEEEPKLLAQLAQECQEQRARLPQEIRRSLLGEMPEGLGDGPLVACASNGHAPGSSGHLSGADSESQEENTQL
Sequence of 1-phosphatidylinositol 4,5-bisphosphate phosphodiesterase gamma-1 (P19174 whole entry): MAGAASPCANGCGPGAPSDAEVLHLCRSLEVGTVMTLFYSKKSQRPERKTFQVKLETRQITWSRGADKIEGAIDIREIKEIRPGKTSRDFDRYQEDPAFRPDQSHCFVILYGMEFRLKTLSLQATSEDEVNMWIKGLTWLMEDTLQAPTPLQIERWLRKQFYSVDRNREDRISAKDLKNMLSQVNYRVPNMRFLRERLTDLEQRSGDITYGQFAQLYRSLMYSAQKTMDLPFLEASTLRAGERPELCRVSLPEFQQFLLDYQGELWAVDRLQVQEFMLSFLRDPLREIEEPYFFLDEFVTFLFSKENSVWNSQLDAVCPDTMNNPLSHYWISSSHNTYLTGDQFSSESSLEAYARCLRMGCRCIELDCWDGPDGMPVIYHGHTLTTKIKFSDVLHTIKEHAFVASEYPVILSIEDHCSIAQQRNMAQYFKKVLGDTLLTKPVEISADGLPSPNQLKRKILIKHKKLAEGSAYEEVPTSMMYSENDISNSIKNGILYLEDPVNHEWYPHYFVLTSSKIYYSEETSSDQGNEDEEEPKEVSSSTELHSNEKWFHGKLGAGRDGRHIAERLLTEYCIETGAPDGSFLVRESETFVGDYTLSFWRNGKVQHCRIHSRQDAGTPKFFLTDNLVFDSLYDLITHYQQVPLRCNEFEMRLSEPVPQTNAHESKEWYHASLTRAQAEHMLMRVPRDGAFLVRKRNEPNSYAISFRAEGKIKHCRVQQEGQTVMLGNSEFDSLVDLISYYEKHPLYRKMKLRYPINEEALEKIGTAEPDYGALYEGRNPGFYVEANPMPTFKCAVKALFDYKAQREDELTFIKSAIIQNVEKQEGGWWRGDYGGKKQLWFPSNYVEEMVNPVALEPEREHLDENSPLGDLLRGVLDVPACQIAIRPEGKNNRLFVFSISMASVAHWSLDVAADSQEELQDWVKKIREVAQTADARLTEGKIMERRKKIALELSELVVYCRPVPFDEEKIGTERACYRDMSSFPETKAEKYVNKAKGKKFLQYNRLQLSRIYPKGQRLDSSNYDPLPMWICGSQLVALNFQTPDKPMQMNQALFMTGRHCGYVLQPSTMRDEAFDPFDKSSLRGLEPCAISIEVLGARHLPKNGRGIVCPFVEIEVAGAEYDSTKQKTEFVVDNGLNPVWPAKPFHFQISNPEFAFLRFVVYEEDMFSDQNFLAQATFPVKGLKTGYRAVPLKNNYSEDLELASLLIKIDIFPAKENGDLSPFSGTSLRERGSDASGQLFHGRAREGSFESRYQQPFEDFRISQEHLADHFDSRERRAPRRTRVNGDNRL

Regarding `C[C@H]1CN([C@@H](C)CO)S(=O)(=O)c2ccc(C#Cc3ccncc3)cc2O[C@@H]1CN(C)C(=O)Nc1ccc2c(c1)OCO2`, the AC50 in [1] was 1.23 µM (active); in test [2] it was 1.48 µM (active); in [3] it was 3.88 µM (active); in test [4] it was 1.89 µM (active); in test [5], 1.49 µM (active); in [6], 0.264 µM (active).

With `COc1ccccc1NC(=O)N1CCCCN2[C@@H](CO)[C@@H](c3ccc(-c4cccc(C)c4)cc3)[C@@H]2C1`, the AC50 in test [7] is 11.2 µM (active); in test [1] it was 28.4 µM (active); in test [2], 31.6 µM (active); in [3] it was 67.5 µM (active); in test [4] it was 68.6 µM (active); in test [8] it was 1.43 µM (active). Besides, in [6], the AC50 was 13.2 µM (active).

On to `CN1C(=O)c2cc(NC(=O)c3ccc(C(F)(F)F)cc3)ccc2OC[C@H]2O[C@@H](CC(=O)NCc3ccc4c(c3)OCO4)CC[C@H]21`, for which the AC50 is 7.69 µM (active) in test [9], 16.2 µM (active) in test [10], 10.9 µM (active) in test [11] and 17.8 µM (active) in [12].

Take `CC[C@H]1CN2CCc3cc(OC)c(OC)cc3C2C[C@@H]1C[C@H]1NCCc2cc(OC)c(OC)cc21` (some centres undefined): the AC50 in test [13] is 95.9 nM (active); in [15] it was 73.1 nM (active); in test [16], < 260 nM (active); in test [17] it was 257 nM (active); in test [18] it was < 260 nM (active); in test [19] it was 250 nM (active). The AC50 in test [20] is 57.6 nM (active). The IC50 in [14] was 209 nM (active).

In the case of `COC(=O)C1CCCN1C(=O)COc1ccc(Br)cc1Cl` (centres undefined), the IC50 in [21] and in test [22] was > 122 µM (inactive) throughout.

As to `Cc1c(NC(=O)c2cccnc2)c(=O)n(-c2ccccc2)n1C` [NIFENAZONE], the IC50 in test [23], in [24], in test [25], in [26], in test [27] and in test [28] was > 20 µM (inactive) each time. In addition, in test [29], the IC50 is > 20 µM (inactive).

For the compound `COc1ccc(C(=O)Nc2ccc3ccccc3c2)c(OC)c1`, in test [30], the IC50 is > 67.5 µM (inactive). In addition, the EC50 in [31] was > 67.5 µM (inactive).

For `CC1(C)NC(=S)C(C)(C)N1N=O`, in test [30], the IC50 is > 67.5 µM (inactive). Further, the EC50 in [31] is > 67.5 µM (inactive).

Regarding `CCCNC(=O)N1[C@H](C#N)[C@H](c2ccccc2-c2cccc(C)c2)[C@@H]1CO`, the AC50 in test [12] is 7.01 µM (active).

Source of the values: ChEMBL document CHEMBL1201862, “PubChem BioAssay data set” (2004).
